# Tests used:
# [1] = cited from earlier work; for VP: at 25 deg C.; for Water solubility: at 25 C.
# rats [2] = settings: cited from earlier work
# [3] = tested on: Common garden slugs (Arion distinctus); assay: slug mucosal contact test (mucus production and body weight loss); type: in vivo; settings: for Mucus loss initial test / Mucus loss 24 test: 30-min contact, % of body weight; for Mucus loss initial test: 60 mg test substance, mean n = 6, initial treatment; for Mucus loss 24 test: second treatment 24 hours later; for Mucus loss 24 test / Remaining body weight after 24 h and 48 h: mean n = 6; for Potency - loss of body weight relative to metaldehyde after deduction of weight loss from the control: after 48 hours; for Potency - loss of body weight relative to metaldehyde after deduction of weight loss from the control / Potency - loss of mucus relative to metaldehyde: metaldehyde = 100; for Combined mucus loss: combined losses of mucus for the two tests; for toxicity in mollusc foot contact tests relative to metaldehyde: contact with the mucus membrane of molluscs; for Potency - loss of mucus relative to metaldehyde: from combined mucus loss; for Remaining body weight after 24 h and 48 h: percentage of the initial body weight; for Reduction in toxic response relative to metaldehyde: Loss of body weight (Table 3) / Reduction in toxic response relative to metaldehyde: Loss of mucus (Table 2): weight for weight basis
# Protocol: To investigate relative toxicity of aldehydes to molluscs, tests were conducted using a method adapted from Adriaens et al. The Mucosal Toxicity of Different Benzalkonium Chloride Analogues Evaluated with an Alternative Test. Pharmaceutical Research, Vol. 18, pages 937-941, 2001.
# Common garden slugs (Arion distinctus) weighing between 1.9 g and 5.2 g were collected from a UK suburban garden and placed into vented plastic boxes lined with paper towels moistened with phosphate buffered saline. The boxes were kept in the shade inside a greenhouse (10° C. minimum) and fed with lettuce and commercial dog food. Experiments were conducted on six slugs for each test treatment using petri dishes containing Whitman Grade 1 general purpose filter papers (90 mm diameter). Filter papers were wetted to saturation with phosphate buffered saline (pH 7.4) and allowed to drain before placing in the petri dishes. At the beginning of each test slugs were placed individually in a petri dish which had been prepared 3 hours previously as a control or with 60 mg of the test substance consisting of fine powdered metaldehyde or a liquid aldehyde. After 30-min incubation slugs were removed and returned to petri dishes with filter papers wetted only with the phosphate buffered saline. The slugs were weighed separately before and after treatment. The change in weight caused by the treatment was calculated and expressed as % (w/w) of the body weight. The petri dishes containing the test medium were also weighed before and after the treatment. The weight of mucus produced was calculated and expressed as % (w/w) of the body weight. The treatment and measurements were repeated 24 hour later and final weights taken after a second 24 hour period.
# rats [4] = assay: acute oral toxicity in rats (LD50); type: in vivo, rat; settings: weight for weight basis
Compound,VP [1] [mm Hg],LD50 acute oral toxicity (rats [2]),Water solubility [1] [µg/mL],Mucus loss initial test [3] [% w/w],Mucus loss 24 test [3] [% w/w],Potency - loss of body weight relative to metaldehyde after deduction of weight loss from the control [3] [%],Combined mucus loss [3] [% w/w],toxicity in mollusc foot contact tests relative to metaldehyde [3],Potency - loss of mucus relative to metaldehyde [3] [%],Remaining body weight after 24 h and 48 h ([3]; 24 h after initial treatment) [wt %],Remaining body weight after 24 h and 48 h ([3]; 48 h after initial treatment) [wt %],Reduction in toxic response relative to metaldehyde: Loss of body weight (Table 3) [3],Reduction in toxic response relative to metaldehyde: Loss of mucus (Table 2) [3],oral toxicity in rats lower relative to metaldehyde (rats [4])
"CCC=O [Propanal, reference compound]",317,,,,,,,,,,,,,
CCCCCC=O [Hexanal],9.57,,,,,,,,,,,,,
CCCC=O [Butanal],108,,,,,,,,,,,,,
"CC=O [Acetaldehyde, reference compound]",902,LD50 661 mg/kg,,,,,,,,,,,,
CCCCCCC=O [1-heptanal],3.52,LD50 > 5000 mg/kg,1167,2.77,0.55,33,3.32,less than single fold reductions,35,85.2,76.5,0.35,0.35,approximately 8 fold
"CC1OC(C)OC(C)O1 (stereo not shown) [Paraldehyde, reference compound]",15.7,LD 50 2711 mg/kg,24140,,,,,,,,,,,
CCCCCCCCC=O [1-nonanal],0.564,LD 50 > 5000 mg/kg,,,,,,,,,,,,
"CC1OC(C)OC(C)OC(C)O1 (stereo not shown) [Metaldehyde, reference compound]",0.000674,LD50 630 mg/kg,,5.55,3.94,100,9.49,,100,68.5,55.4,,,
CCCCCCCCCC=O [1-decanal],0.235,LD 50 3096 mg/kg,43.52,3.28,2.64,40,5.92,less than single fold reductions,62,79.7,74.1,0.40,0.62,approximately 8 fold
CCCCCCCC=O [1-octanal],1.49,LD 50 4616 mg/kg,394.3,3.82,2.98,58,6.8,less than single fold reductions,72,78.6,68.7,0.58,0.72,approximately 8 fold

# Reference: patent publication US20190373887A1, “ENCAPSULATED MOLUSCICIDE” (INGWERMAT LIMITED, priority 2015, published 2019)
